The values that follow come from PubChem BioAssay (NCI).

Among the test systems are M14 melanoma; IGROV1 ovarian; OVCAR-8 ovarian; UACC-62 melanoma; KM12 colon; RXF 393 renal; HL-60(TB) leukemia; SW-620 colon; HCT-116 colon; NCI-H226 lung; U251 CNS; SF-539 CNS; A549 NSCLC; SNB-75 CNS; PC-3 prostate; SK-MEL-2 melanoma; NCI/ADR-RES ovarian.
What all share (experiment): inhibition of tumour cell growth, NCI panel, 48 h

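The compound was tested at five concentrations on cells cultured in 96-well plates, with a 48-hour exposure period. TGI: concentration producing complete growth inhibition.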

For `COc1cc2c(cc1O)[C@H](C)C(c1ccccc1OC)O2` (stereo not given in full), the TGI in the test with M14 melanoma was > 100 µM; with IGROV1 ovarian it was > 100 µM; with OVCAR-8 ovarian, 57.8 µM; in the test with UACC-62 melanoma, > 100 µM; in the test with KM12 colon, > 100 µM; with RXF 393 renal it was 93.6 µM. Further, the TGI in the test on HL-60(TB) leukemia amounted to 7.5 µM; in the test with SW-620 colon, 12.2 µM; in the test with HCT-116 colon it was 15.4 µM; in the test on NCI-H226 lung it was 72.3 µM; in the test with U251 CNS, 8.01 µM; with SF-539 CNS, 41.5 µM. Also, the TGI with A549 NSCLC was > 100 µM; with SNB-75 CNS, 6.48 µM.
`CCN=C=NCCCN(C)C`: the TGI with M14 melanoma, with IGROV1 ovarian, in the test with OVCAR-8 ovarian, in the test on PC-3 prostate, with SK-MEL-2 melanoma and with UACC-62 melanoma was > 100 µM in each case. The TGI in the test with KM12 colon, in the test with RXF 393 renal, in the test with HL-60(TB) leukemia, with SW-620 colon, in the test with HCT-116 colon and in the test with NCI/ADR-RES ovarian was > 100 µM in each case. The TGI in the test on NCI-H226 lung, in the test with U251 CNS, in the test with SF-539 CNS, in the test on A549 NSCLC and in the test with SNB-75 CNS was > 100 µM in each case.
Take `Fc1ccc2c(c1)SC1Oc3ccccc3-c3c1c-2nn3-c1ccccc1` (stereo not given): the TGI with IGROV1 ovarian, with OVCAR-8 ovarian, in the test with SK-MEL-2 melanoma, in the test with KM12 colon, in the test on RXF 393 renal and in the test with HL-60(TB) leukemia was > 100 µM throughout. The TGI with SW-620 colon, with HCT-116 colon, in the test on U251 CNS, with SF-539 CNS, in the test on A549 NSCLC and with SNB-75 CNS was > 100 µM each time.
Take `Cc1cc(Cl)ccc1NC(=O)C(=O)Cc1ccc([N+](=O)[O-])c([N+](=O)[O-])c1CC(=O)C(=O)Nc1ccc(Cl)cc1C`: the TGI in the test on M14 melanoma, in the test on IGROV1 ovarian, with OVCAR-8 ovarian, in the test with SK-MEL-2 melanoma, in the test on UACC-62 melanoma and with KM12 colon was > 100 µM throughout. For the same molecule, the TGI in the test with RXF 393 renal, in the test with HL-60(TB) leukemia, with SW-620 colon, in the test with HCT-116 colon, in the test on NCI-H226 lung and in the test on U251 CNS was > 100 µM throughout. Also, the TGI in the test on SF-539 CNS, in the test with A549 NSCLC and in the test with SNB-75 CNS was > 100 µM in each case.
In the case of `CC(C)c1cccc(C(C)C)c1NC(=O)C(=O)CC(=O)CC(c1ccccc1)c1c(O)c2ccccc2oc1=O` (stereo not given), the TGI in the test with M14 melanoma, with IGROV1 ovarian, with OVCAR-8 ovarian, in the test with SK-MEL-2 melanoma, in the test on UACC-62 melanoma and with KM12 colon was > 100 µM throughout. Besides, the TGI in the test on RXF 393 renal, with HL-60(TB) leukemia, in the test on SW-620 colon, with HCT-116 colon, in the test on SF-539 CNS and in the test on A549 NSCLC was > 100 µM throughout.
`CN/C=C(/c1ccc(OC)cc1)C(O)c1ccc(OC)c(OC)c1` (stereo not given): the TGI in the test on M14 melanoma, in the test with IGROV1 ovarian, in the test on OVCAR-8 ovarian, in the test with SK-MEL-2 melanoma, with UACC-62 melanoma and with KM12 colon was > 100 µM throughout. In addition, the TGI in the test with RXF 393 renal, in the test on HL-60(TB) leukemia, in the test with SW-620 colon, with HCT-116 colon, in the test on NCI-H226 lung and with U251 CNS was > 100 µM throughout. Moreover, the TGI in the test on SF-539 CNS, with A549 NSCLC and in the test on SNB-75 CNS was > 100 µM throughout.
As to `CN(C)CCn1c(=O)oc2cc(C(=O)CN3CCOCC3)ccc21`, the TGI in the test on M14 melanoma, with IGROV1 ovarian, in the test on OVCAR-8 ovarian, with PC-3 prostate, in the test on SK-MEL-2 melanoma and in the test on UACC-62 melanoma was > 100 µM each time. In addition, the TGI in the test on KM12 colon, with RXF 393 renal, in the test with HL-60(TB) leukemia, in the test on SW-620 colon, with HCT-116 colon and with NCI/ADR-RES ovarian was > 100 µM in each case. Further, the TGI in the test with NCI-H226 lung, in the test on U251 CNS, with SF-539 CNS and in the test with SNB-75 CNS was > 100 µM throughout.
For the molecule `O=C(CSc1nnc(Cc2ccccc2)o1)Nc1ccccc1Cl`, the TGI in the test on M14 melanoma, in the test with IGROV1 ovarian, in the test on OVCAR-8 ovarian, in the test on SK-MEL-2 melanoma, in the test on UACC-62 melanoma and in the test with KM12 colon was > 100 µM throughout. Moreover, the TGI in the test with HL-60(TB) leukemia, in the test on SW-620 colon, in the test on HCT-116 colon, in the test on NCI-H226 lung, in the test with U251 CNS and in the test with SF-539 CNS was > 100 µM throughout. Moreover, in the test with A549 NSCLC, the TGI was > 100 µM.
With `COc1cc2c(cc1OC)C(=O)Cc1ccc3c(c1CNCC2)OCO3`, the TGI in the test on M14 melanoma, in the test on IGROV1 ovarian, in the test on OVCAR-8 ovarian, in the test on SK-MEL-2 melanoma, in the test with UACC-62 melanoma and with KM12 colon was > 100 µM each time. In addition, the TGI with SW-620 colon, in the test on HCT-116 colon, with U251 CNS, in the test on SF-539 CNS, in the test on A549 NSCLC and with SNB-75 CNS was > 100 µM in each case.
Consider `Cc1nc2nn(Cc3ccccc3)cc2c(=O)o1`, for which the TGI in the test with IGROV1 ovarian, in the test on OVCAR-8 ovarian, with SK-MEL-2 melanoma, in the test on UACC-62 melanoma, with KM12 colon and in the test with RXF 393 renal was > 100 µM in each case. Also, the TGI in the test with HL-60(TB) leukemia, in the test with SW-620 colon, in the test on HCT-116 colon, with NCI-H226 lung, with U251 CNS and in the test on SF-539 CNS was > 100 µM throughout. For the same molecule, the TGI with A549 NSCLC and in the test on SNB-75 CNS was > 100 µM each time.
